Results from ChEMBL document CHEMBL4308859, “Discovery of Novel Central Nervous System Penetrant Metabotropic Glutamate Receptor Subtype 2 (mGlu2) Negative Allosteric Modulators (NAMs) Based on Functionalized Pyrazolo[1,5- a]pyrimidine-5-carboxamide and Thieno[3,2- b]pyridine-5-carboxamide Cores” (J Med Chem, 2018).

How the values were obtained:
[1] = Ratio of AUC in brain to plasma of Sprague-Dawley rat at 10 mg/kg, ip by LC-MS/MS analysis; format: ADME, organism-based; conditions: brain and plasma, read-out: Ratio AUC
[2] = Unbound AUC in Sprague-Dawley rat brain at 10 mg/kg, ip by LC-MS/MS analysis; format: ADME, organism-based; conditions: in vivo
[3] = target: Metabotropic glutamate receptor 4 (Rattus norvegicus, UniProt P31423); assay: Negative allosteric modulation of rat mGlu4 receptor expressed in HEK cells harboring GIRK assessed as reduction in glutamate-induced thallium flux preincubated for 2.3 mins followed by glutamate addition measured after 2.6 mins by BTC-AM-dye based fluorescence assay; format: cell-based
[4] = target: Metabotropic glutamate receptor 5 (Homo sapiens, UniProt P41594); assay: Negative allosteric modulation of human mGlu5R expressed in Trex293 cells assessed as decrease in glutamate-induced calcium mobilization preincubated for 2.3 mins followed by glutamate addition and measured after 2.6 mins by Fluo-4-AM dye based fluorescence assay; format: functional, cell-based
Sequence of Metabotropic glutamate receptor 5 (P41594 whole entry): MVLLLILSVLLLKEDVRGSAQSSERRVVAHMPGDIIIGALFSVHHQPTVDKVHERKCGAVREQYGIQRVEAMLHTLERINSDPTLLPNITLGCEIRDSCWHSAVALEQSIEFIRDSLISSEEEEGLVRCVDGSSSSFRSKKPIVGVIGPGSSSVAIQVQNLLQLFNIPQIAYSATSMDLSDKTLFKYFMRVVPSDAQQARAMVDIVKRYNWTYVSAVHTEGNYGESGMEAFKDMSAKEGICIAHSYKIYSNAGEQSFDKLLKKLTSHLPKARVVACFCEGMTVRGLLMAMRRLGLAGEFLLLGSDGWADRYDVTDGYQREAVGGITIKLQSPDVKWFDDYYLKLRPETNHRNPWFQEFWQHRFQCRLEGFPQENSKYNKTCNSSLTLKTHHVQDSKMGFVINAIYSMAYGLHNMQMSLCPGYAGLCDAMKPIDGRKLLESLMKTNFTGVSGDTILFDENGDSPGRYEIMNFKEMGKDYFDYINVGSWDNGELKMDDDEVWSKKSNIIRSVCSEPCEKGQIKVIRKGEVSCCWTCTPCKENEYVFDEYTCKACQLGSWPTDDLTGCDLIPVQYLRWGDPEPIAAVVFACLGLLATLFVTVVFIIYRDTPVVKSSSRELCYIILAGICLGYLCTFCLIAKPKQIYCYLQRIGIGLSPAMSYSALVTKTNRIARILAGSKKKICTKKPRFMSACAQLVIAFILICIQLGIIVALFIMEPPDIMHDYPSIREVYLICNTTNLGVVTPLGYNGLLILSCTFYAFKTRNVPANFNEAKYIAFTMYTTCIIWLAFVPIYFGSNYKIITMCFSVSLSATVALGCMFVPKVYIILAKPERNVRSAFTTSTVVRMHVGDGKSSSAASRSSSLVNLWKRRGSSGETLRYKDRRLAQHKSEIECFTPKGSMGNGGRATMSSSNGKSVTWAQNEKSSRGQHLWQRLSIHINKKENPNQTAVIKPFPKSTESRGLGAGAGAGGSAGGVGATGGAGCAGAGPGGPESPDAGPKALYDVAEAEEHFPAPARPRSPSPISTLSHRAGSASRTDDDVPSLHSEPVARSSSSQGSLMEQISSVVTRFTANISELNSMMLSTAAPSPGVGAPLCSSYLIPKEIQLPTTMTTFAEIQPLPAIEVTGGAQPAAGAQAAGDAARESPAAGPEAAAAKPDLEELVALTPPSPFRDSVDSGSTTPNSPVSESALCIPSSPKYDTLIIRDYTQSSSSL

[5] = target: Metabotropic glutamate receptor 2 (Rattus norvegicus) (UniProt P31421); assay: Negative allosteric modulation of rat mGlu2R expressed in HEK293 cells co-expressing Galpha15 assessed as decrease in glutamate-induced calcium mobilization at 30 uM preincubated for 2.3 mins followed by glutamate addition and measured after 1.7 mins by Fluo-4-AM dye based fluorescence assay relative to control; format: functional, cell-based
Sequence of Metabotropic glutamate receptor 2 (Rattus norvegicus) (P31421 19-872 limits assumed): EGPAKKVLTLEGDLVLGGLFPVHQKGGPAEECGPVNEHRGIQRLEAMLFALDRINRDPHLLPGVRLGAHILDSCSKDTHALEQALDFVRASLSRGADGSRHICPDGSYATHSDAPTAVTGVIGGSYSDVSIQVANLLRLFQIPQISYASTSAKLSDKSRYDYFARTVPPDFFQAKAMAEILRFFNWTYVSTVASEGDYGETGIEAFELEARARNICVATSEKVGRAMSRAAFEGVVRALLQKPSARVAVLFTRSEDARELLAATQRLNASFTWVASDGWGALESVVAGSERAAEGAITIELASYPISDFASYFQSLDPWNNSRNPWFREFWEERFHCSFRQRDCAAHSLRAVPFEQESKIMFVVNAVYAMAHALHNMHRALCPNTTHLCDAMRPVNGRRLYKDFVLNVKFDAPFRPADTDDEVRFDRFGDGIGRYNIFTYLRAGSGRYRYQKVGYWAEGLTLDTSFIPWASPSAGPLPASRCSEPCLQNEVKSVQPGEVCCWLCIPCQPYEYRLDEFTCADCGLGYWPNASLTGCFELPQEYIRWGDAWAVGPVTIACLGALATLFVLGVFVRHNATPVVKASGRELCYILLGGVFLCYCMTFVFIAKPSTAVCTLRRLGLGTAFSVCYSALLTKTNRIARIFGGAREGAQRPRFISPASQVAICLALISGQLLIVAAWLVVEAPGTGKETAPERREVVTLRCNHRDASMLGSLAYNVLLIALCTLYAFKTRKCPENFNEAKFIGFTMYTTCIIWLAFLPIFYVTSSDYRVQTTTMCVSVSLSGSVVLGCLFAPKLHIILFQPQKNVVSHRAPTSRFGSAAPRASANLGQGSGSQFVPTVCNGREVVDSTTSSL

[6] = Cmax in Sprague-Dawley rat plasma at 10 mg/kg, ip by LC-MS/MS analysis; format: ADME, organism-based; set-up: dose 10 mg/kg, route intraperitoneal
[7] = Half life in Sprague-Dawley rat at 0.2 mg/kg, iv administered as cassette dose by LC-MS/MS analysis; format: ADME, organism-based; conditions: in vivo
[8] = Fraction unbound in human plasma after 4 hrs by equilibrium dialysis method; format: ADME, cell-free
[9] = target: Metabotropic glutamate receptor 8 (Rattus norvegicus, UniProt P70579); assay: Negative allosteric modulation of rat mGlu8 receptor expressed in HEK cells harboring GIRK assessed as reduction in glutamate-induced thallium flux preincubated for 2.3 mins followed by glutamate addition measured after 2.6 mins by BTC-AM-dye based fluorescence assay; format: cell-based
[10] = Unbound Cmax in Sprague-Dawley rat brain at 10 mg/kg, ip by LC-MS/MS analysis; format: ADME, organism-based; conditions: in vivo
[11] = target: Metabotropic glutamate receptor 1 (Homo sapiens, UniProt Q13255); assay: Negative allosteric modulation of human mGlu1R expressed in Trex293 cells assessed as decrease in glutamate-induced calcium mobilization preincubated for 2.3 mins followed by glutamate addition and measured after 2.6 mins by Fluo-4-AM dye based fluorescence assay; format: functional, cell-based
[12] = Fraction unbound in rat plasma after 4 hrs by equilibrium dialysis method; format: ADME, cell-free
[13] = target: Metabotropic glutamate receptor 6 (Homo sapiens, UniProt O15303); assay: Negative allosteric modulation of human mGlu6 receptor expressed in HEK cells harboring GIRK assessed as reduction in glutamate-induced thallium flux preincubated for 2.3 mins followed by glutamate addition measured after 2.6 mins by BTC-AM-dye based fluorescence assay; format: cell-based
Sequence of Metabotropic glutamate receptor 6 (O15303 whole entry): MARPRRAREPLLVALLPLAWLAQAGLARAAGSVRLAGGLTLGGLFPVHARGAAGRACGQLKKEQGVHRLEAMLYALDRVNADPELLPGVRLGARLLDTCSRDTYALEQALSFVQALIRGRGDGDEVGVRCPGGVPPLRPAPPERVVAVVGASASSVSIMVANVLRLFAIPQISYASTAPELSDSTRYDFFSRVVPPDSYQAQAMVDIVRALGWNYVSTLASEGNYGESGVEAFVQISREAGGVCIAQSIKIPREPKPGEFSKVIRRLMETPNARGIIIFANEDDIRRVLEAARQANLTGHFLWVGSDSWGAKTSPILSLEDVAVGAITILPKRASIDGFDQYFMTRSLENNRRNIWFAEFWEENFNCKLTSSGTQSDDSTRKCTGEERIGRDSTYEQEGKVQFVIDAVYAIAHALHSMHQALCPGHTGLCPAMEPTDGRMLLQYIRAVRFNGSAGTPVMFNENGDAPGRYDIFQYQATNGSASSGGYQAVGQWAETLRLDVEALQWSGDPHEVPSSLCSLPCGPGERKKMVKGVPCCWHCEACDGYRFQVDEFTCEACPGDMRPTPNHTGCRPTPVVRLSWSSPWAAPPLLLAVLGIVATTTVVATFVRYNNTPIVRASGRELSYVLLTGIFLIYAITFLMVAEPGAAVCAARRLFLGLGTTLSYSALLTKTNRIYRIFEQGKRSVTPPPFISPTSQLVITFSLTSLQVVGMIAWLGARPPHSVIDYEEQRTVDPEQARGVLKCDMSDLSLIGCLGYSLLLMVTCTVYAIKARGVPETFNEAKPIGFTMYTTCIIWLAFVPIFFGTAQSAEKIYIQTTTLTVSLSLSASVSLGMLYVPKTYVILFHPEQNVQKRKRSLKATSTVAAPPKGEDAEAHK

[14] = Brain to plasma partition coefficient, Kp of the compound in Sprague-Dawley rat at 0.2 mg/kg, iv administered as cassette dose by LC-MS/MS analysis; format: ADME, organism-based; conditions: brain and plasma
[15] = Unbound brain to plasma ratio in Sprague-Dawley rat at 0.2 mg/kg, iv administered as cassette dose by LC-MS/MS analysis; format: ADME, organism-based; conditions: brain and plasma, read-out: K(p,uu,brain)
[16] = target: Metabotropic glutamate receptor 3 (Rattus norvegicus, UniProt P31422); assay: Negative allosteric modulation of rat mGlu3R expressed in Trex cells co-expressing Galpha15 assessed as decrease in glutamate-induced calcium mobilization preincubated for 2.3 mins followed by glutamate addition and measured after 2.6 mins by Fluo-4-AM dye based fluorescence assay; format: functional, cell-based
Sequence of Metabotropic glutamate receptor 3 (P31422 whole entry): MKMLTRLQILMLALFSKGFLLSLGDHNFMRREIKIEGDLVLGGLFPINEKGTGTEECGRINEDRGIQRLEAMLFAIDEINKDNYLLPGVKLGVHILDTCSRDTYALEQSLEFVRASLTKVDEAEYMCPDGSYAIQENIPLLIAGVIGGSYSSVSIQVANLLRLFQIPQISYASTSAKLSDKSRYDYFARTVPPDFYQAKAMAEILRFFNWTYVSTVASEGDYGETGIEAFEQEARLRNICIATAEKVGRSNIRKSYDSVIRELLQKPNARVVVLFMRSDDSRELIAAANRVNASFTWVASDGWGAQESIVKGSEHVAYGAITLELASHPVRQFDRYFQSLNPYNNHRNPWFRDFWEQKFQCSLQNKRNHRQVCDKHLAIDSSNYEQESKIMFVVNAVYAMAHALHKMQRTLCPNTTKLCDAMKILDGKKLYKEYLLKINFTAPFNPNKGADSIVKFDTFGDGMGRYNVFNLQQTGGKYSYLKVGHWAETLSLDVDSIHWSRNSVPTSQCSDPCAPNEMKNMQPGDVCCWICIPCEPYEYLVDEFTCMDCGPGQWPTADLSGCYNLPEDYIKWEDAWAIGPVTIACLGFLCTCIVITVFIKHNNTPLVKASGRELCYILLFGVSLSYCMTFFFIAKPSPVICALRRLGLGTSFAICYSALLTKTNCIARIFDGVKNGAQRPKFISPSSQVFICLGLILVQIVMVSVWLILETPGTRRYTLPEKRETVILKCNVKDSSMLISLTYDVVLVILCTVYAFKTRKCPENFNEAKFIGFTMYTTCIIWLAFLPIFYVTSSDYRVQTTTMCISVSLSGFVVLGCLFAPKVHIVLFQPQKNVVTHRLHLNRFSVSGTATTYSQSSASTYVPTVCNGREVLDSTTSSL

[17] = AUC in Sprague-Dawley rat plasma at 10 mg/kg, ip by LC-MS/MS analysis; format: ADME, organism-based; conditions: in vivo
[18] = target: Metabotropic glutamate receptor 2 (Rattus norvegicus, UniProt P31421); assay: Negative allosteric modulation of rat mGlu2R expressed in HEK293 cells co-expressing Galpha15 assessed as decrease in glutamate-induced calcium mobilization preincubated for 2.3 mins followed by glutamate addition and measured after 1.7 mins by Fluo-4-AM dye based fluorescence assay; format: functional, cell-based
[19] = target: Metabotropic glutamate receptor 7 (Rattus norvegicus, UniProt P35400); assay: Negative allosteric modulation of rat mGlu7 receptor expressed in HEK cells harboring GIRK assessed as reduction in […]-induced thallium flux preincubated for 2.3 mins followed by […] addition measured after 2.6 mins by BTC-AM-dye based fluorescence assay; format: cell-based
Sequence of Metabotropic glutamate receptor 7 (P35400 whole entry): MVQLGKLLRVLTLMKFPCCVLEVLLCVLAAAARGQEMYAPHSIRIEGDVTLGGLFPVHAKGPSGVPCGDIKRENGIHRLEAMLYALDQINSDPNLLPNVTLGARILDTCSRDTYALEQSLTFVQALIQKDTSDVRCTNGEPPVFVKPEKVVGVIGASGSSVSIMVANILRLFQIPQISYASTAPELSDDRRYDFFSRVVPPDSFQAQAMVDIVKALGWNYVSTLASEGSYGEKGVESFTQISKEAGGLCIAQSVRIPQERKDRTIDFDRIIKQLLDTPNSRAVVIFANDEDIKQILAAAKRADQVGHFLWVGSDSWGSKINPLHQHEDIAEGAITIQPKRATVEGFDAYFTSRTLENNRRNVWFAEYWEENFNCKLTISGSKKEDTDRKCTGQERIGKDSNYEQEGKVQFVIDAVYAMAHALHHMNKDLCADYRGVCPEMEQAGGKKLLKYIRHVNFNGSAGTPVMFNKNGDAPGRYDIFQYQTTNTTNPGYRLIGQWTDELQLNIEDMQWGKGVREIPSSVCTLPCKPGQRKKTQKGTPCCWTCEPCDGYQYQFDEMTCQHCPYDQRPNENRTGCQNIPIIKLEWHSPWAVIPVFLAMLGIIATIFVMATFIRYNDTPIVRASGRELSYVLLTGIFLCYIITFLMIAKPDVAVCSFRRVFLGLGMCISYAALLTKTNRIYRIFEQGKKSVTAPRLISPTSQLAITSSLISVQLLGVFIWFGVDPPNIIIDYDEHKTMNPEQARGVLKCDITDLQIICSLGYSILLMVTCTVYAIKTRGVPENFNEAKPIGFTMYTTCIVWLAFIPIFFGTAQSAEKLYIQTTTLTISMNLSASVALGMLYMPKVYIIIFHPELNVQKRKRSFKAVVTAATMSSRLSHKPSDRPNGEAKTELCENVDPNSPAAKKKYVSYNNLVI

[20] = Fraction unbound in rat brain; format: ADME, tissue-based
[21] = Cmax in Sprague-Dawley rat brain at 10 mg/kg, ip by LC-MS/MS analysis; format: ADME, organism-based; set-up: dose 10 mg/kg, route intraperitoneal
[22] = AUC in Sprague-Dawley rat brain at 10 mg/kg, ip by LC-MS/MS analysis; format: ADME, organism-based; conditions: in vivo

Kp [1]: 5.67 | fAUC [2]: 165 nM | IC50 [3]: > 30 µM | IC50 [4]: > 30 µM | Emax [5]: 2.3% | Cmax [6]: 1.07 µM | t1/2 [7]: 1.5 h | fraction unbound at 4 h [8]: 0.01 | IC50 [9]: > 30 µM | fCmax [10]: 30.4 nM | IC50 [11]: > 30 µM | fraction unbound at 4 h [12]: 0.05 | IC50 [13]: > 30 µM | Kp [14]: 5.67 | Kp uu [15]: 0.52 | IC50 [16]: > 30 µM | AUC [17]: 5.81 µM | IC50 [18]: 0.55 µM | IC50 [19]: > 30 µM | fraction unbound [20]: 0.005 | Cmax [21]: 6.09 µM | AUC [22]: 32.9 µM
Structure (SMILES): C[C@@H]1CN(Cc2cc3nc(C(N)=O)cc(-c4ccc(F)cc4)c3s2)C[C@H](C)O1
